Active and inactive are the calls of the source. No cut-off for these calls is given here.
Tests used:
Cannabinoid receptor 1 [1] = biological target: Cannabinoid receptor 1 (Homo sapiens, UniProt P21554); assay: Displacement of [3H]-CP-55940 from recombinant human CB1 receptor overexpressed in HEK293 cell membranes after 90 mins
Cannabinoid receptor 2 [2] = biological target: T1, Cannabinoid receptor 2 (Homo sapiens, UniProt P34972); assay: Displacement of [3H]-CP-55940 from recombinant human CB2 receptor overexpressed in HEK293 cell membranes after 90 mins
T1 sequence (P34972 whole entry): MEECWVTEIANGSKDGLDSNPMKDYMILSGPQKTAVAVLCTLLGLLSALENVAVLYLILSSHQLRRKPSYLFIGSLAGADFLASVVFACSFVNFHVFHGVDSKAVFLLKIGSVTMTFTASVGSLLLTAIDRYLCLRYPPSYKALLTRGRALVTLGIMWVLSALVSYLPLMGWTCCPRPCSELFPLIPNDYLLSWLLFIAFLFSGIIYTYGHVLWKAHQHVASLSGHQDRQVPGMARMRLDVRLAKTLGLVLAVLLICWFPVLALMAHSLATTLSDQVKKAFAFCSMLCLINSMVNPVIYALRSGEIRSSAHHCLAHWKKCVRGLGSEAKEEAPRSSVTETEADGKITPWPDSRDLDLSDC

Homo sapiens = organism: Homo sapiens; assay: Selectivity index, ratio of Ki for recombinant human CB1 receptor to Ki for recombinant human CB2 receptor
Cannabinoid receptor 2 [3] = biological target: T1, Cannabinoid receptor 2; assay: Agonist activity at human CB2 receptor transfected in CHO cell membranes after 90 mins by [35S]-GTPgammaS assay; format: functional
PBMC [4] = assay: Antiinflammatory activity in human myelin basic protein activated PBMC isolated from healthy human assessed as inhibition of phosphorylated Cox-2 expression after 6 days by Western blot analysis; format: functional, cell-based
PBMC [5] = assay: Antiinflammatory activity in human myelin basic protein activated PBMC isolated from multiple sclerosis patient assessed as inhibition of phosphorylated Akt expression at 10 uM after 6 days by Western blot analysis; format: functional, cell-based
PBMC [6] = assay: Antiinflammatory activity in human myelin basic protein activated PBMC isolated from multiple sclerosis patient assessed as inhibition of phosphorylated Cox-2 expression at 10 uM after 6 days by Western blot analysis; format: functional, cell-based
CHO = assay: Effect on mock-transfected CHO cell membranes after 90 mins by [35S]-GTPgammaS assay; format: functional; conditions: Cricetulus griseus
[7] = biological target: Cannabinoid receptor 1 (Rattus norvegicus) (UniProt P20272); assay: Modulation of CB1 receptor-mediated G protein activity in rat cerebellar membranes at < 10 uM after 90 mins by [35S]-GTPgammaS assay; format: functional, cell membranes; conditions: Cerebellum, Membrane
Cannabinoid receptor 1 (Rattus norvegicus), sequence (P20272 whole entry): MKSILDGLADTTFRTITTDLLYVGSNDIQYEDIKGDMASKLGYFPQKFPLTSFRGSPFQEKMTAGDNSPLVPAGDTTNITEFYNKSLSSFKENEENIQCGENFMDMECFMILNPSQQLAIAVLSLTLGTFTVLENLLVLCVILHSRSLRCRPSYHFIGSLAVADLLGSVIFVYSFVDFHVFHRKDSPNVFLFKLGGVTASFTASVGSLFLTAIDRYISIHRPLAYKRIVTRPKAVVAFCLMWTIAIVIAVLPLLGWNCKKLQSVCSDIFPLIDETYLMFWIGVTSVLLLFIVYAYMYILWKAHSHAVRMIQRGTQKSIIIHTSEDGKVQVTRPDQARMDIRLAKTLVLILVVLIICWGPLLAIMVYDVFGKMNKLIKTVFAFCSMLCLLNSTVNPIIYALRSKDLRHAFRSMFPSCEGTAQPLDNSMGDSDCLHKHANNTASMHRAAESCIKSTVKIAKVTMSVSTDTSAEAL

LNCaP [8] = assay: Cytotoxicity against human LNCAP cells expressing CB2 receptor assessed as decrease in cell viability after 72 hrs by neutral red uptake and accumulation assay
LNCaP [9] = assay: Cytotoxicity against human LNCAP cells expressing CB2 receptor assessed as decrease in cell viability at 2 uM after 72 hrs by neutral red uptake and accumulation assay in presence of CB2 receptor antagonist MC21 relative to control; format: functional, cell-based
PBMC [10] = assay: Immunomodulatory activity in human myelin basic protein activated PBMC isolated from healthy human assessed as decrease in cell proliferation after 6 days by trypan blue staining-based haemocytometric analysis relative to control; format: functional
PBMC [11] = assay: Immunomodulatory activity in human myelin basic protein activated PBMC isolated from multiple sclerosis patient assessed as decrease in cell proliferation after 6 days by trypan blue staining-based haemocytometric analysis relative to control; format: functional
PBMC [12] = assay: Immunomodulatory activity in human myelin basic protein activated PBMC isolated from healthy human assessed as inhibition of CD54 expression after 6 days by flow cytometric analysis; format: functional, cell-based
PBMC [13] = assay: Immunomodulatory activity in human myelin basic protein activated PBMC isolated from healthy human assessed as inhibition of CD69 expression after 6 days by flow cytometric analysis; format: functional, cell-based
PBMC [14] = assay: Immunomodulatory activity in human myelin basic protein activated PBMC isolated from healthy human assessed as inhibition of CD25 expression after 6 days by flow cytometric analysis; format: functional, cell-based
PBMC [15] = assay: Immunomodulatory activity in human myelin basic protein activated PBMC isolated from healthy human assessed as inhibition of CD62 expression after 6 days by flow cytometric analysis; format: functional, cell-based
PBMC [16] = assay: Immunomodulatory activity in human myelin basic protein activated PBMC isolated from healthy human assessed as inhibition of CD49d expression after 6 days by flow cytometric analysis; format: functional, cell-based
PBMC [17] = assay: Immunomodulatory activity in human myelin basic protein activated PBMC isolated from multiple sclerosis patient assessed as inhibition of CD54 expression at 10 uM after 6 days by flow cytometric analysis; format: functional, cell-based
PBMC [18] = assay: Immunomodulatory activity in human myelin basic protein activated PBMC isolated from multiple sclerosis patient assessed as inhibition of CD25 expression at 10 uM after 6 days by flow cytometric analysis; format: functional, cell-based
PBMC [19] = assay: Immunomodulatory activity in human myelin basic protein activated PBMC isolated from multiple sclerosis patient assessed as inhibition of CD49d expression at 10 uM after 6 days by flow cytometric analysis; format: functional, cell-based
PBMC [20] = assay: Antiinflammatory activity in human myelin basic protein activated PBMC isolated from healthy human assessed as inhibition of phosphorylated Akt expression after 6 days by Western blot analysis; format: functional, cell-based
PBMC [21] = assay: Antiinflammatory activity in human myelin basic protein activated PBMC isolated from healthy human assessed as inhibition of phosphorylated Akt expression at 10 uM after 6 days by Western blot analysis; format: functional, cell-based
PBMC [22] = assay: Antiinflammatory activity in human myelin basic protein activated PBMC isolated from healthy human assessed as inhibition of phosphorylated Cox-2 expression at 10 uM after 6 days by Western blot analysis; format: functional, cell-based
[23] = biological target: Cannabinoid receptor 1 (Rattus norvegicus) (UniProt P20272); assay: Agonist activity at CB1 receptor in rat cerebellar membranes at 3 uM after 90 mins by [35S]-GTPgammaS assay in presence of CB1 antagonist AM251; format: functional, cell membranes; conditions: Cerebellum, Membrane
Cannabinoid receptor 1 [24] = biological target: Cannabinoid receptor 1 (Rattus norvegicus, UniProt P20272); assay: Agonist activity at CB1 receptor in rat cerebellar membranes after 90 mins by [35S]-GTPgammaS assay; format: functional, cell membranes, Cerebellum, Membrane
Cannabinoid receptor 1 (Rattus norvegicus, UniProt P20272), sequence (P20272 whole entry): as above

[25] = biological target: Cannabinoid receptor 1 (Rattus norvegicus) (UniProt P20272); assay: Agonist activity at CB1 receptor in rat cerebellar membranes after 90 mins by [35S]-GTPgammaS assay relative to 2-AG; format: functional, cell membranes; conditions: Cerebellum, Membrane
LNCaP [26] = assay: Cytotoxicity against human LNCAP cells expressing CB2 receptor assessed as decrease in cell viability at 5 uM after 72 hrs by neutral red uptake and accumulation assay in presence of CB2 receptor antagonist MC21 relative to control; format: functional, cell-based
PBMC [27] = assay: Immunomodulatory activity in human myelin basic protein activated PBMC isolated from healthy human assessed as viable cells at 10 uM after 6 days by trypan blue staining-based haemocytometric analysis; format: functional; conditions: 144 h, read-out: Activity
PBMC [28] = assay: Immunomodulatory activity in human myelin basic protein activated PBMC isolated from multiple sclerosis patient assessed as decrease in cell proliferation at 10 uM after 6 days by trypan blue staining-based haemocytometric analysis relative to control; format: functional
PBMC [29] = assay: Immunomodulatory activity in human myelin basic protein activated PBMC isolated from healthy human assessed as inhibition of CD54 expression at 10 uM after 6 days by flow cytometric analysis; format: functional, cell-based
PBMC [30] = assay: Immunomodulatory activity in human myelin basic protein activated PBMC isolated from healthy human assessed as inhibition of CD69 expression at 10 uM after 6 days by flow cytometric analysis; format: functional, cell-based
PBMC [31] = assay: Immunomodulatory activity in human myelin basic protein activated PBMC isolated from healthy human assessed as inhibition of CD25 expression at 10 uM after 6 days by flow cytometric analysis; format: functional, cell-based
PBMC [32] = assay: Immunomodulatory activity in human myelin basic protein activated PBMC isolated from healthy human assessed as inhibition of CD62 expression at 10 uM after 6 days by flow cytometric analysis; format: functional, cell-based
PBMC [33] = assay: Immunomodulatory activity in human myelin basic protein activated PBMC isolated from healthy human assessed as inhibition of CD49d expression at 10 uM after 6 days by flow cytometric analysis; format: functional, cell-based

Cannabinoid receptor 1 (Homo sapiens, UniProt P21554), sequence (P21554 whole entry): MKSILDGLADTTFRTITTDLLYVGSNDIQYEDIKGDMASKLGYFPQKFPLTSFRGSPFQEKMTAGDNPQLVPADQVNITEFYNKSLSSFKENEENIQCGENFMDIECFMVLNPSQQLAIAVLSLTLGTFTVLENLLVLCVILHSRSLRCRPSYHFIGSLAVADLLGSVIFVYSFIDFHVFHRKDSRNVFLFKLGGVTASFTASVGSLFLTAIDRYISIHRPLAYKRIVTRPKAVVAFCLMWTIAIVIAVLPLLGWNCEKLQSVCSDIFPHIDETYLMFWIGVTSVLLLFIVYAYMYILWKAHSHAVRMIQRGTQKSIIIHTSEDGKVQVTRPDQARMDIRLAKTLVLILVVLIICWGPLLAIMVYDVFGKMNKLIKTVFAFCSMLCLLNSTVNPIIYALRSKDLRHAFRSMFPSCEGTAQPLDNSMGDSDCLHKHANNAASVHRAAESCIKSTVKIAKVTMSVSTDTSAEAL

## CCCCn1c(=O)c(C(=O)NC2CCC(C)CC2)cc2ccccc21 (configuration not stated)
Cannabinoid receptor 1 [1]
  Ki: 551 nM
Cannabinoid receptor 2 [2]
  Ki: 19.8 nM
Homo sapiens
  Ratio Ki: 28

## CCCCCCC(C)(C)c1cc(O)c2c(c1)OC(C)(C)[C@@H]1CC=C(CO)C[C@@H]21
Cannabinoid receptor 2 [3]
  Emax: 290%

## CCCn1c(=O)c(C(=O)NC2CCC(C)CC2)cc2ccccc21 (configuration not stated)
Cannabinoid receptor 1 [1]
  Ki: 2610 nM
Cannabinoid receptor 2 [2]
  Ki: 25.4 nM
Homo sapiens
  Ratio Ki: 102

## CC1CCC(NC(=O)c2c(O)c3cccnc3n(CCCO)c2=O)CC1 (configuration not stated)
Cannabinoid receptor 1 [1]
  Ki: > 10000 nM
Cannabinoid receptor 2 [2]
  Ki: 215 nM
Homo sapiens
  Ratio Ki: > 4.6

## CC1CCC(NC(=O)c2cc3ccccc3n(CCCO)c2=O)CC1 (configuration not stated)
Cannabinoid receptor 1 [1]
  Ki: 3760 nM
Cannabinoid receptor 2 [2]
  Ki: 36 nM
Homo sapiens
  Ratio Ki: 104

## CC1CCC(NC(=O)c2cc3ccccc3n(CCN3CCOCC3)c2=O)CC1 (configuration not stated)
Cannabinoid receptor 1 [1]
  Ki: 800 nM
Cannabinoid receptor 2 [2]
  Ki: 4.2 nM
Homo sapiens
  Ratio Ki: 190

## CC1CCC(NC(=O)c2c(O)c3cccnc3n(CCN3CCOCC3)c2=O)CC1 (configuration not stated)
Cannabinoid receptor 1 [1]
  Ki: 630 nM
Cannabinoid receptor 2 [2]
  Ki: 7.44 nM
Homo sapiens
  Ratio Ki: 85

## CC1CCC(NC(=O)c2cc3ccccc3n(Cc3ccc(F)cc3)c2=O)CC1 (configuration not stated)
Cannabinoid receptor 1 [1]
  Ki: 19.4 nM
Cannabinoid receptor 2 [2]
  Ki: 0.75 nM
Homo sapiens
  Ratio Ki: 27.7

## CC1CCC(NC(=O)c2c(O)c3cccnc3n(Cc3ccc(F)cc3)c2=O)CC1 (configuration not stated)
PBMC [4]
  inhibition: Dose-dependent effect
PBMC [5]
  inhibition: Active
PBMC [6]
  inhibition: Active
Cannabinoid receptor 1 [1]
  Ki: 138 nM
Cannabinoid receptor 2 [2]
  Ki: 0.75 nM
Cannabinoid receptor 2 [3]
  EC50: 3.16 nM
  Emax: 216%
CHO
  Activity: inactive
[7]
  Activity: inactive
LNCaP [8]
  IC50: 2080 nM
LNCaP [9]
  Activity: inactive
PBMC [10]
  Activity: Dose-dependent effect
PBMC [11]
  Activity: Dose-dependent effect
PBMC [12]
  inhibition: Dose-dependent effect
PBMC [13]
  inhibition: Dose-dependent effect
PBMC [14]
  inhibition: Dose-dependent effect
PBMC [15]
  inhibition: Dose-dependent effect
PBMC [16]
  inhibition: Dose-dependent effect
PBMC [17]
  inhibition: Active
PBMC [18]
  inhibition: Active
PBMC [19]
  inhibition: Active
PBMC [20]
  inhibition: Dose-dependent effect

## CCCC(C)(C)c1ccc2c(c1)OC(C)(C)[C@@H]1CC=C(C)C[C@@H]21
LNCaP [8]
  IC50: 11600 nM

## CCCCn1c(=O)c(C(=O)NC2CCC(C)CC2)c(O)c2cccnc21 (configuration not stated)
Cannabinoid receptor 1 [1]
  Ki: 701 nM
Cannabinoid receptor 2 [2]
  Ki: 11.2 nM
Homo sapiens
  Ratio Ki: 62

## CCCCCn1c(=O)c(C(=O)NC2CCC(C)CC2)cc2ccccc21 (configuration not stated)
PBMC [21]
  inhibition: Active
PBMC [22]
  inhibition: Active
Cannabinoid receptor 1 [1]
  Ki: 227 nM
Cannabinoid receptor 2 [2]
  Ki: 1.5 nM
Cannabinoid receptor 2 [3]
  EC50: 2 nM
  Emax: 280%
[23]
  Activity: inactive
CHO
  Activity: inactive
Cannabinoid receptor 1 [24]
  EC50: 2510 nM
[25]
  Emax: 230%
LNCaP [8]
  IC50: 3900 nM
LNCaP [26]
  Activity: inactive
PBMC [27]
  viability at 10 µM: 71.5%
PBMC [28]
  Activity: Active
PBMC [29]
  inhibition: inactive
PBMC [30]
  inhibition: Active
PBMC [31]
  inhibition: Active
PBMC [32]
  inhibition: inactive
PBMC [33]
  inhibition: inactive

Reference: ChEMBL document CHEMBL3421611, “New quinolone- and 1,8-naphthyridine-3-carboxamides as selective CB2 receptor agonists with anticancer and immuno-modulatory activity” (Eur J Med Chem, 2015)
